Laboratory results: the supplement of paper PMC10307832

Tests used:
Assay in all cases: relative viability (nuclei count vs DMSO), 5 days (fraction); higher = more cells survive
LCLC-97TM1 = tested on: LCLC-97TM1
Summary of the method: (§1)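 Values are medians from duplicate plates. Each reflects relative viability, defined as the nuclei count of treated wells over that of vehicle wells. Lung cancer cell lines in 1536-well plates were pin-tool dosed one day after seeding with one drug alone or with a fixed anchor-drug dose plus five library-drug doses (not always all listed) in √10 steps, then fixed, stained and imaged at 4× after 5 days.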

NCI-H1993 = tested on: NCI-H1993
Summary of the method: as §1

NCI-H1650 = tested on: NCI-H1650
Summary of the method: as §1

LXF-289 = tested on: LXF-289
Summary of the method: as §1

NCI-H2228 = tested on: NCI-H2228
Summary of the method: as §1

LK-2 = tested on: LK-2
Summary of the method: as §1

SW 1573 = tested on: SW 1573
Summary of the method: as §1

LU99A = tested on: LU99A
Summary of the method: as §1

NCI-H2405 = tested on: NCI-H2405
Summary of the method: as §1

ChaGo-K-1 = tested on: ChaGo-K-1
Summary of the method: as §1

HCC-827 = tested on: HCC-827
Summary of the method: as §1

H3255 = tested on: H3255
Summary of the method: as §1

NCI-H3122 = tested on: NCI-H3122
Summary of the method: as §1

EPLC-272H = tested on: EPLC-272H
Summary of the method: as §1

NCI-H1355 = tested on: NCI-H1355
Summary of the method: as §1

HOP-62 = tested on: HOP-62
Summary of the method: as §1

NCI-H441 = tested on: NCI-H441
Summary of the method: as §1

SK-LU-1 = tested on: SK-LU-1
Summary of the method: as §1

PC-3 [JPC-3] = tested on: PC-3 [JPC-3]
Summary of the method: as §1

EKVX = tested on: EKVX
Summary of the method: as §1

UMC-11 = tested on: UMC-11
Summary of the method: as §1

NCI-H2170 = tested on: NCI-H2170
Summary of the method: as §1

CCNC(=O)c1noc(-c2cc(C(C)C)c(O)cc2O)c1-c1ccc(CN2CCOCC2)cc1 [Luminespib] + C[C@@H](Oc1cc(-c2cnn(C3CCNCC3)c2)cnc1N)c1c(Cl)ccc(F)c1Cl [Crizotinib] (partner 1 µM)
relative viability (LCLC-97TM1; first compound 0.002 µM): 0.417
relative viability (LCLC-97TM1; first compound 0.006325 µM): 0.461
relative viability (LCLC-97TM1; first compound 0.02 µM): 0.157
relative viability (LCLC-97TM1; first compound 0.06325 µM): 0.221
relative viability (LCLC-97TM1; first compound 0.2 µM): 0.22
relative viability (NCI-H1993; first compound 0.002 µM): 0.929
relative viability (NCI-H1993; first compound 0.006325 µM): 0.953
relative viability (NCI-H1993; first compound 0.02 µM): 0.884
relative viability (NCI-H1993; first compound 0.06325 µM): 0.743
relative viability (NCI-H1993; first compound 0.2 µM): 0.47
relative viability (NCI-H1650; first compound 0.002 µM): 0.944
relative viability (NCI-H1650; first compound 0.006325 µM): 0.928
relative viability (NCI-H1650; first compound 0.02 µM): 0.7
relative viability (NCI-H1650; first compound 0.06325 µM): 0.12
relative viability (NCI-H1650; first compound 0.2 µM): 0.134
relative viability (LXF-289; first compound 0.002 µM): 0.825
relative viability (LXF-289; first compound 0.006325 µM): 0.79
relative viability (LXF-289; first compound 0.02 µM): 0.894
relative viability (LXF-289; first compound 0.06325 µM): 0.459
relative viability (LXF-289; first compound 0.2 µM): 0.123
relative viability (NCI-H2228; first compound 0.002 µM): 0.47
relative viability (NCI-H2228; first compound 0.006325 µM): 0.514
relative viability (NCI-H2228; first compound 0.02 µM): 0.264
relative viability (NCI-H2228; first compound 0.06325 µM): 0.161
relative viability (NCI-H2228; first compound 0.2 µM): 0.148
relative viability (LK-2; first compound 0.002 µM): 0.215
relative viability (LK-2; first compound 0.006325 µM): 0.217
relative viability (LK-2; first compound 0.02 µM): 0.269
relative viability (LK-2; first compound 0.06325 µM): 0.231
relative viability (LK-2; first compound 0.2 µM): 0.196
relative viability (SW 1573; first compound 0.002 µM): 0.833
relative viability (SW 1573; first compound 0.006325 µM): 0.853
relative viability (SW 1573; first compound 0.02 µM): 0.757
relative viability (SW 1573; first compound 0.06325 µM): 0.191
relative viability (SW 1573; first compound 0.2 µM): 0.0946
relative viability (LU99A; first compound 0.002 µM): 0.606
relative viability (LU99A; first compound 0.006325 µM): 0.628
relative viability (LU99A; first compound 0.02 µM): 0.343
relative viability (LU99A; first compound 0.06325 µM): 0.127
relative viability (LU99A; first compound 0.2 µM): 0.112
relative viability (NCI-H2405; first compound 0.002 µM): 0.829
relative viability (NCI-H2405; first compound 0.006325 µM): 0.644
relative viability (NCI-H2405; first compound 0.02 µM): 0.705
relative viability (NCI-H2405; first compound 0.06325 µM): 0.615
relative viability (NCI-H2405; first compound 0.2 µM): 0.257
relative viability (ChaGo-K-1; first compound 0.002 µM): 1.23
relative viability (ChaGo-K-1; first compound 0.02 µM): 1.01
relative viability (ChaGo-K-1; first compound 0.06325 µM): 0.562
relative viability (ChaGo-K-1; first compound 0.2 µM): 0.301
relative viability (HCC-827; first compound 0.002 µM): 0.944
relative viability (HCC-827; first compound 0.006325 µM): 0.899
relative viability (HCC-827; first compound 0.02 µM): 0.887
relative viability (HCC-827; first compound 0.06325 µM): 0.952
relative viability (HCC-827; first compound 0.2 µM): 0.879
relative viability (H3255; first compound 0.002 µM): 0.896
relative viability (H3255; first compound 0.006325 µM): 0.691
relative viability (H3255; first compound 0.02 µM): 0.755
relative viability (H3255; first compound 0.06325 µM): 0.621
relative viability (H3255; first compound 0.2 µM): 0.216
relative viability (NCI-H3122; first compound 0.002 µM): 0.278
relative viability (NCI-H3122; first compound 0.006325 µM): 0.267
relative viability (NCI-H3122; first compound 0.02 µM): 0.222
relative viability (NCI-H3122; first compound 0.06325 µM): 0.181
relative viability (NCI-H3122; first compound 0.2 µM): 0.165
relative viability (EPLC-272H; first compound 0.006325 µM): 0.892
relative viability (EPLC-272H; first compound 0.02 µM): 0.655
relative viability (EPLC-272H; first compound 0.06325 µM): 0.88
relative viability (EPLC-272H; first compound 0.2 µM): 0.917
relative viability (NCI-H1355; first compound 0.002 µM): 1.1
relative viability (NCI-H1355; first compound 0.006325 µM): 1.05
relative viability (NCI-H1355; first compound 0.02 µM): 0.62
relative viability (NCI-H1355; first compound 0.06325 µM): 1.08
relative viability (NCI-H1355; first compound 0.2 µM): 1.08
relative viability (HOP-62; first compound 0.002 µM): 0.931
relative viability (HOP-62; first compound 0.006325 µM): 0.962
relative viability (HOP-62; first compound 0.02 µM): 0.79
relative viability (HOP-62; first compound 0.06325 µM): 0.993
relative viability (HOP-62; first compound 0.2 µM): 0.875
relative viability (NCI-H441; first compound 0.002 µM): 0.884
relative viability (NCI-H441; first compound 0.006325 µM): 0.719
relative viability (NCI-H441; first compound 0.02 µM): 0.904
relative viability (NCI-H441; first compound 0.06325 µM): 0.119
relative viability (NCI-H441; first compound 0.2 µM): 0.109
relative viability (SK-LU-1; first compound 0.002 µM): 0.992
relative viability (SK-LU-1; first compound 0.006325 µM): 0.708
relative viability (SK-LU-1; first compound 0.02 µM): 0.574
relative viability (SK-LU-1; first compound 0.06325 µM): 0.176
relative viability (SK-LU-1; first compound 0.2 µM): 0.155
relative viability (PC-3 [JPC-3]; first compound 0.002 µM): 1.01
relative viability (PC-3 [JPC-3]; first compound 0.006325 µM): 0.875
relative viability (PC-3 [JPC-3]; first compound 0.02 µM): 0.971
relative viability (PC-3 [JPC-3]; first compound 0.06325 µM): 0.996
relative viability (PC-3 [JPC-3]; first compound 0.2 µM): 0.933
relative viability (EKVX; first compound 0.002 µM): 0.985
relative viability (EKVX; first compound 0.006325 µM): 0.989
relative viability (EKVX; first compound 0.02 µM): 0.97
relative viability (EKVX; first compound 0.06325 µM): 0.472
relative viability (EKVX; first compound 0.2 µM): 0.218
relative viability (UMC-11; first compound 0.002 µM): 0.606
relative viability (UMC-11; first compound 0.006325 µM): 0.584
relative viability (UMC-11; first compound 0.02 µM): 0.682
relative viability (UMC-11; first compound 0.06325 µM): 0.156
relative viability (UMC-11; first compound 0.2 µM): 0.107
relative viability (NCI-H2170; first compound 0.002 µM): 1.19
relative viability (NCI-H2170; first compound 0.006325 µM): 1.23
relative viability (NCI-H2170; first compound 0.02 µM): 0.655
relative viability (NCI-H2170; first compound 0.06325 µM): 1.08
relative viability (NCI-H2170; first compound 0.2 µM): 0.355
